# Columns and labels:
# [1] = tested on: Mus musculus; assay: Compound was tested […] for immunosuppressive activity in the serum free mixed lymphocyte reaction; type: functional
# [2] = tested on: Mus musculus; assay: In vivo immunosuppressive activity in the delayed type hypersensitivity model induced by SRBC-TH cells in mouse after peroral administration; type: functional; conditions: po
Structure (SMILES),IC50 [1] [µg/mL],ED50 [2] [mg/kg]
C=C(C/C=C/C(C)(C)O)[C@H]1CC[C@]2(C)[C@@H]1CC[C@@H]1[C@@]3(C)CC[C@H](O)C(C)(C)[C@@H]3CC[C@]12C,0.8,10
C=C(C/C=C/C(C)(C)O)[C@@H]1CC[C@]2(C)[C@@H]1CC[C@@H]1[C@@]3(C)CC[C@H](O)C(C)(C)[C@@H]3CC[C@]12C,0.01,0.04

# Reference: ChEMBL document CHEMBL1131729, “Isolation and synthesis of a novel immunosuppressive 17alpha-substituted dammarane from the flour of the Palmyrah palm (Borassus flabellifer)” (Bioorg Med Chem Lett, 1999)
